Patent publication US8815305B2, “Composition containing a plant extract and process for producing same” (BASF Beauty Care Solutions France S.A.S., priority 2003, dated 2014)
pIC50, pKi: −log10 of the molar value.

Legend:
[1] = biological target: T1, human leucocyte elastase (HLE) (Homo sapiens, UniProt P08246); details: cited from earlier work
T1 sequence (P08246 30-267): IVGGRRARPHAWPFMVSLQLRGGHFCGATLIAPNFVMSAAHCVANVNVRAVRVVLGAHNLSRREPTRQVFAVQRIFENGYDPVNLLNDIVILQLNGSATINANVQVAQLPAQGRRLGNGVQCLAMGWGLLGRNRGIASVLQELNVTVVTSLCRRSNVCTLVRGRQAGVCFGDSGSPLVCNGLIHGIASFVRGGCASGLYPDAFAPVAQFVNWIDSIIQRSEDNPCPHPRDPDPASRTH

human keratinocytes = assay: Cytophotoprotection of human keratinocytes against UV-B radiation; type: cell-based; details: for Cell number, % against control / Released LDH, % against control / Released PGE2, % against control: UVB
Description: UV-B irradiation (from 280 to 320 nm) of the human skin induces a cutaneous inflammation mainly by activation of an enzyme (phospholipase A2 or PLA2), which releases arachidonic acid from the cell membranes of the cells of the skin (V. A. De Leo, D. Hanson, I. B. Weinstein and L. C. Harber—Ultraviolet radiation stimulates the release of arachidonic acid from mammalian cells in culture—Photochemistry and Photobiology (1985) volume 41N°1 pages 51-56). Then other specific enzymes (so called cyclo-oxygenases) transform arachidonic acid in active components called prostaglandines (or PG) which are secreted out of the cells. The fixation of certain prostaglandins (PGE2) on specific skin receptors is followed by redness and swelling as after a sunburn. On cultured human cells, these UV-B effects on cell membranes are associated with a release in the supernatant medium of a cytoplasmic enzyme, the Lactate Dehydrogenase or LDH (B. Bonnekoh, B. Farkas, J. Geisel and G. Mahrle—Lactate dehydrogenase release as an indicator of dithranol-induced membrane injury in cultured human keratinocytes. Dermatological research (1990) volume 282, pages 325-331).
Expressed in keywords, the experiments were carried out as follows: • Inoculation of human keratinocytes within growth medium (standard medium with fetal calf serum (FCS) • Incubation 3 days at 37° C., CO2=5% • Exchange of growth medium with balanced salt solution containing ingredient to be tested • Irradiation of keratinocytes by UV-B: 50 mJ/cm^2 (DUKE GL40E lamp) (A DUKE GL40E lamp is a certain type of marketed sunlamp well known to the skilled artisan) • Incubation 1 day at 37° C., CO2=5% • Numeration of adherent cells after trypsination (trypsination is a process based on the use of the enzyme trypsine which is a protease allowing the retrieval of cell from the support in order to seed the cells into a bigger flask and therefore to expand the cell culture) • Recovery of supernatant medium for spectrophotometric determination of the activity of LDH, and PGE2 by ELISA method

bovine trypsin = biological target: T2, bovine trypsin (Bos taurus, UniProt P00760); details: competitive or non-competitive; cited from earlier work
T2 sequence (P00760 24-246): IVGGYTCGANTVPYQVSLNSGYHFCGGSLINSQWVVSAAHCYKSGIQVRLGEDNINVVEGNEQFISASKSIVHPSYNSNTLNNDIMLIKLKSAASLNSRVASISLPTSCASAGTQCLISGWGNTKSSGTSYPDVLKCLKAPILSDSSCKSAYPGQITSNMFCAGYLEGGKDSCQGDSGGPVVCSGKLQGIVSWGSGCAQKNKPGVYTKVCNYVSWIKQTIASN

bovine chymotrypsin = bovine chymotrypsin (Bos taurus, UniProt P00766); details: competitive or non-competitive; cited from earlier work
[2] = tested on: 5-lipoxygenase products in human neutrophils; details: cited from earlier work
leucine aminopeptidase [3] = details: cited from earlier work
leucine aminopeptidase [4] = details: cited from earlier work; remark: listed apart in the source
[5] = biological target: porcine pancreatic elastase (Sus scrofa, UniProt P00772); details: cited from earlier work
Sequence of porcine pancreatic elastase (P00772 27-266): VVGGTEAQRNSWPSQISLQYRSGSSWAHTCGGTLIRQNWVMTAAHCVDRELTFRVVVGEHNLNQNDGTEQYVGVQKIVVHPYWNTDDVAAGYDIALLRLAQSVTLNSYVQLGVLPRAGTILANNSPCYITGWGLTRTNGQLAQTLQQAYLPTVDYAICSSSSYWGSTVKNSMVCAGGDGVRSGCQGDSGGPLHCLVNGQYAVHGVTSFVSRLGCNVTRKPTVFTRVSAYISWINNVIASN

[6] = biological target: T1, human leucocyte elastase (HLE); details: read-out: HLE inhibitory activity IC(50); cited from earlier work
[7] = tested on: Croton oil induced oedema of the mouse ear; details: cited from earlier work
[8] = tested on: skin chronic inflammation; details: in vivo; cited from earlier work
elastase from pancreas = elastase from pancreas (Sus scrofa, UniProt P00772); assay: Elastase inhibition, Elastin-Congo red as substrate; type: biochemical; details: 30 minutes at room temperature, Elastin-Congo red
Sequence of elastase from pancreas (P00772 27-266): as above
Procedure: This test was carried out with an elastase from pancreas on Elastin labelled with Congo red. The time of incubation was 30 minutes at room temperature and the optical density of released Congo red was recorded after centrifugation at a wavelength of 520 nm. al-antitrypsine was used as positive reference.
The following table summarizes the results expressed as EC 50 in % w/v. (EC 50 in % w/v is the concentration in % w/v which reduces the enzymatic activity by 50%.)

human fibroblasts = assay: Cytophotoprotection of human fibroblasts against UV-A radiation; type: cell-based
Procedure: The cytoprotection against UV-A radiation was evaluated by a test on human fibroblasts because UV-A radiation penetrates through the epidermis until the derma where it induces oxidative stress (DALLE CARBONARE M, PATHAK M A; Skin photosensitising agents and the role of reactive oxygen species in photoaging; JOURNAL OF PHOTOCHEMISTRY & PHOTOBIOLOGY, 1992, 14, 1-2, pages 105-124. This oxidative stress was evaluated in vitro by measuring of the level of released MDA (malonaldehyde) and of intracellular GSH (reduced glutathione) (Morliere P., Moisan A., Santus R., Huppe G., Mazière J. C., Dubertret L.: UV-A induced lipid peroxydation in cultured human fibroblasts. Biochim. Biophys. Acta, 1084, 3, pages 261-269 (1991)).
Expressed in keywords, the experiments were carried out as follows: • Inoculation of human fibroblasts within a growth medium (standard medium with foetal calf serum (FCS) • Incubation 3 days at 37° C., CO2=5% • Exchange of growth medium with balanced salt solution • Irradiation of fibroblasts by UV-A: 20 J/cm^2 (black light TFWN lamp) (A TFWN lamp is a certain type of marketed sunlamp well known to the skilled artisan) • Exchange of growth medium with standard medium without FCS but containing ingredient to be tested • Incubation 3 days at 37° C., CO2=5% • Recovery of supernatant medium for spectrophotometric determination of the malonaldialdehde (or MDA) rate • Cells number determined by evaluation of the levels of cellular proteins (Bradford's method) and the rate of cellular GSH was evaluated according to the method of Hissin

Compound: CC1(C)[C@@H](O)CC[C@]2(C)[C@H]3C(=O)C=C4[C@@H]5C[C@@](C)(C(=O)O)CC[C@]5(C)CC[C@@]4(C)[C@]3(C)CC[C@@H]12 [18 beta-glycyrrhetic acid]
- interaction with the ursolic acid binding site of HLE [1]: can also interact with this binding site

Compound: CC(=O)Oc1ccccc1C(=O)O [Aspirin]
- UV toxic effects on the number of viable cells (cell number and released LDH) (human keratinocytes): distinctly reduced
- release of inflammatory mediators such as PGE2 (human keratinocytes): distinctly reduced
- Cell number, % against control (human keratinocytes; dose 0.0003%): 67%
- Released LDH, % against control (human keratinocytes; dose 0.0003%): 13%
- Released PGE2, % against control (human keratinocytes; dose 0.0003%): 0%

Compound: COc1ccc2c(c1)c(CC(=O)O)c(C)n2C(=O)c1ccc(Cl)cc1 [Indomethacine, Indomethacin]
- UV toxic effects on the number of viable cells (cell number and released LDH) (human keratinocytes): moderately reduced
- release of inflammatory mediators such as PGE2 (human keratinocytes): drastically reduced
- Cell number, % against control (human keratinocytes): 34%
- Released LDH, % against control (human keratinocytes): 77%
- Released PGE2, % against control (human keratinocytes): 0%

Compound: C=C(C)[C@@H]1CC[C@]2(C)CC[C@]3(C)C(CC[C@@H]4[C@@]5(C)CC[C@H](OC(=O)CCCCCCC/C=C/C/C=C/CCCCC)C(C)(C)[C@@H]5CC[C@]43C)[C@@H]12 (stereo partly drawn) [Lupeol linoleate]
- pKi (bovine trypsin): 5.15

Compound: CCCCCCCCCCCCCCCC(=O)O[C@H]1CC[C@]2(C)[C@H]3CC=C4[C@@H]5[C@@H](C)[C@H](C)CC[C@@]5(C)CC[C@@]4(C)[C@]3(C)CC[C@H]2C1(C)C [alpha-Amyrin palmitate]
- pKi (bovine chymotrypsin): 5.22

Compound: CC(=O)O[C@H]1CC[C@]2(C)[C@H]3CC=C4[C@@H]5[C@@H](C)[C@H](C)CC[C@]5(C)CC[C@@]4(C)[C@]3(C)CC[C@H]2C1(C)C [alpha-amyrin acetate]
- 5-HETE synthesis [2]: reduced
- LTB4 synthesis [2]: without effect

Compound: CCCCCC=CCC=CCCCCCCCC(=O)OC1CCC2(C)C(CCC3(C)C2CC=C2C4C(C)C(C)CCC4(C)CCC23C)C1(C)C (stereo not drawn) [alpha-amyrin linoleate]
- pKi (bovine chymotrypsin): 4.55
- pKi (bovine trypsin): 4.80

Compound: C[C@H]1[C@H](C)CC[C@]2(C)CC[C@]3(C)C(=CC[C@@H]4[C@@]5(C)CC[C@H](O)C(C)(C)[C@@H]5CC[C@]43C)[C@H]12 [alpha-amyrin]
- inhibition of Lucilia cuprina leucine aminopeptidase (leucine aminopeptidase [3]): ineffective or very weak
- inhibition of Helicoverpa punctigera leucine aminopeptidase (leucine aminopeptidase [4]): ineffective or very weak
- inhibition of porcine pancreatic elastase [5]: ineffective or very weak
- pKi (bovine chymotrypsin): 4.74
- pKi (bovine trypsin): 4.54

Compound: CC(=O)O[C@H]1CC[C@]2(C)[C@H]3CC=C4[C@@H]5CC(C)(C)CC[C@]5(C)CC[C@@]4(C)[C@]3(C)CC[C@H]2C1(C)C [beta-amyrin acetate]
- 5-HETE synthesis [2]: reduced
- LTB4 synthesis [2]: without effect

Compound: CC1(C)CC[C@]2(C)CC[C@]3(C)C(=CC[C@@H]4[C@@]5(C)CC[C@H](O)C(C)(C)[C@@H]5CC[C@]43C)[C@@H]2C1 [beta-amyrin]
- 5-HETE synthesis [2]: reduced
- LTB4 synthesis [2]: without effect

Compound: C[C@H]1C(=O)CC[C@@H]2[C@]1(C)CC[C@H]1[C@@]2(C)CC[C@@]2(C)[C@@H]3CC(C)(C)CC[C@]3(CO)CC[C@]12C [canophyllol]
- pIC50 [6]: 5.60

Compound: CCCCCCCCCCCCCCCC(=O)OC1CCC2(C)C(CCC3(C)C2CCC2C4C(C)C(C)=CCC4(C)C(O)CC23C)C1(C)C (stereo not drawn) [faradiol-3-palmitic acid ester]
- anti-oedematous activity [7]: nearly the same dose dependent anti-oedematous activity

Compound: CC1=CC[C@@]2(C)[C@H]([C@@H]1C)[C@H]1CC[C@@H]3[C@@]4(C)CC[C@H](O)C(C)(C)[C@@H]4CC[C@@]3(C)[C@]1(C)C[C@@H]2O [faradiol]
- anti-oedematous activity [7]: more active than its esters and than psi-taraxasterol
- anti-oedematous effect compared with indomethacin ([7]; equimolar dose): same effect

Compound: CC1(C)CC[C@]2(C(=O)O)CC[C@]3(C)C(=CC[C@@H]4[C@@]5(C)CC[C@H](O)[C@@](C)(CO)[C@@H]5CC[C@]43C)[C@@H]2C1 [hederagenin]
- interaction with the ursolic acid binding site of HLE [1]: can also interact with this binding site

Compound: C=C(C)[C@@H]1CC[C@]2(C)CC[C@]3(C)[C@H](CC[C@@H]4[C@@]5(C)CC[C@H](OC(=O)CCCCCCCCCCCCCCC)C(C)(C)[C@@H]5CC[C@]43C)[C@@H]12 [lupeol palmitate]
- pKi (bovine trypsin): 5.00

Compound: C=C(C)[C@@H]1CC[C@]2(C)CC[C@]3(C)[C@H](CC[C@@H]4[C@@]5(C)CC[C@H](O)C(C)(C)[C@@H]5CC[C@]43C)[C@@H]12 [lupeol]
- inhibition of Lucilia cuprina leucine aminopeptidase (leucine aminopeptidase [3]): ineffective or very weak
- inhibition of Helicoverpa punctigera leucine aminopeptidase (leucine aminopeptidase [4]): ineffective or very weak
- inhibition of porcine pancreatic elastase [5]: ineffective or very weak
- pKi (bovine chymotrypsin): 5.10
- pKi (bovine trypsin): 4.66
- pIC50 [6]: 5.72

Compound: CC1=CCC2(C)CCC3(C)C(CCC4C5(C)CCC(O)C(C)(C)C5CCC43C)C2C1C (stereo not drawn) [psi-taraxasterol]
- anti-oedematous activity [7]: slightly lower effect

Compound: C[C@H]1[C@H](C)CC[C@]2(C(=O)O)CC[C@]3(C)C(=CC[C@@H]4[C@@]5(C)CC[C@H](O)C(C)(C)[C@@H]5CC[C@]43C)[C@H]12 [ursolic acid]
- activity on chronic dermal inflammation [8]: significantly effective
- pKi ([1]; hydrolysis of peptide substrates in phosphate-buffered saline, read-out: inhibition constant, HLE): 5.22 to 5.40
- pIC50 [6]: 5.36

Compound: A1 anti trypsine: positive reference of the elastase test
- Elastase EC 50 (concentration which reduces the enzymatic activity by 50%) (elastase from pancreas): 0.03% w/v

Compound: Tocopherol
- protection of human fibroblasts from toxic UVA effects (human fibroblasts): strongly protected
- GSH/protein, % against control (human fibroblasts; UV-A 20 J/cm^2, dose 0.0003%): 89%
- Released MDA, % against control (human fibroblasts; UV-A 20 J/cm^2, dose 0.0003%): 23%
- cell's protein, % against control (human fibroblasts; UV-A 20 J/cm^2, dose 0.0003%): 106%

Compound: faradiol-3-myristic acid ester
- anti-oedematous activity [7]: nearly the same dose dependent anti-oedematous activity
